For experiment [1], the target named is T1, Glycogen phosphorylase, liver form (Homo sapiens, UniProt P06737).
T1 sequence (P06737 whole entry): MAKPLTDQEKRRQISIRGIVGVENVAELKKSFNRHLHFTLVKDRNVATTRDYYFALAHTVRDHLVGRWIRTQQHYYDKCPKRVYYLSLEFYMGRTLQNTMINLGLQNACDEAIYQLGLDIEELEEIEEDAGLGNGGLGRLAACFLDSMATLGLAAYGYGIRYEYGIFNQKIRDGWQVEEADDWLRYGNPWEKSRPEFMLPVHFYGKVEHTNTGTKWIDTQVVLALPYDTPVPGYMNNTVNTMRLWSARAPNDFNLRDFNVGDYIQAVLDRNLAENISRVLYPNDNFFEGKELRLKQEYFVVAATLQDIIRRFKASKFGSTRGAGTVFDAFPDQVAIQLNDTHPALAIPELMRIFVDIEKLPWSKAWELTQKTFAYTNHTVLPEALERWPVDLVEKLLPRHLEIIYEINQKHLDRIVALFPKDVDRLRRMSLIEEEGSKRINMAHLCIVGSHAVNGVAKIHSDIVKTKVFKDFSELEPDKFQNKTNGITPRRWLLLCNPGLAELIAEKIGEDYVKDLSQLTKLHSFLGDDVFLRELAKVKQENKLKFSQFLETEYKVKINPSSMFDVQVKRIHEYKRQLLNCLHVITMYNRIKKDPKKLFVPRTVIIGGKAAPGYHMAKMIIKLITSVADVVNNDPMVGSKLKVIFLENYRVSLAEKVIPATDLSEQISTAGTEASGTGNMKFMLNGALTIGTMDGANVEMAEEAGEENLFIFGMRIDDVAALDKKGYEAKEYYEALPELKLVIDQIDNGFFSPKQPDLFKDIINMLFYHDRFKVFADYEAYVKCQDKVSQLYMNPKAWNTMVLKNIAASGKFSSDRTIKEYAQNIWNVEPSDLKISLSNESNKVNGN
The class given is subcellular, K-562, COLO 205, SK-N-BE(2) and MV-4-11, Cell lysate. The settings on record: read-out: Kd apparent.

Experiment [2] addresses Adenylate kinase 2, mitochondrial (Homo sapiens, UniProt P54819).
The target in experiment [3] is T2, Delta(24)-sterol reductase (Homo sapiens, UniProt Q15392).
T2 sequence (Q15392 whole entry): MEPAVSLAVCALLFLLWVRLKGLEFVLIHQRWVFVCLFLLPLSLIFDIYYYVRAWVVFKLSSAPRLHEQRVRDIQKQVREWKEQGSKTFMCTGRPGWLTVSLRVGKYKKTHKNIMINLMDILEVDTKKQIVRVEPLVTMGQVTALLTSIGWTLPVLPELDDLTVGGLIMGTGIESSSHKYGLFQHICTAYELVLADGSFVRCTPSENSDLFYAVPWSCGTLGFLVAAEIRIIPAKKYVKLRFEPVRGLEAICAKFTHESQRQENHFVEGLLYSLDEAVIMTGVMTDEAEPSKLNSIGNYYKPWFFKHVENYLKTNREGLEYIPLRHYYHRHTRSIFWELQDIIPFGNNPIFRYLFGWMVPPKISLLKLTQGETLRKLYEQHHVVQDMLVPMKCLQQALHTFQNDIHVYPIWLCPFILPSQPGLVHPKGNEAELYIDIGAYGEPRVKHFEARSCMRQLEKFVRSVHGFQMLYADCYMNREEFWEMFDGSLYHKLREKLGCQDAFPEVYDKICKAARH

In another experiment the target is T3, Scaffold protein ILK (Homo sapiens, UniProt Q13418).
T3 sequence (Q13418 whole entry): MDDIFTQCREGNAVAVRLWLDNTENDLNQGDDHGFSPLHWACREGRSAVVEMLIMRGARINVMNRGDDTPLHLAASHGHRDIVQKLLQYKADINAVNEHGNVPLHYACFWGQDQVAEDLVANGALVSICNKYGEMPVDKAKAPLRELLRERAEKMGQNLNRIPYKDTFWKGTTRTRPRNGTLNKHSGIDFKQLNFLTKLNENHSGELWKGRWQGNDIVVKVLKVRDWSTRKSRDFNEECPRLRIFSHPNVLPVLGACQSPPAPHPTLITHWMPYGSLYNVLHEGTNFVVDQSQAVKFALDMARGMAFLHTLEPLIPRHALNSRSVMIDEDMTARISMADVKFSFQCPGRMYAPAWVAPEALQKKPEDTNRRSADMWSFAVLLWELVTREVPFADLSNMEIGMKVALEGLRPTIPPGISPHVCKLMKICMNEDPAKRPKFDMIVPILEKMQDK

The next experiment concerns the target Midasin (Homo sapiens, UniProt Q9NU22).
For experiment [4], the target named is T4, Serine/threonine-protein kinase PLK4 (Homo sapiens, UniProt O00444).
T4 sequence (O00444 whole entry): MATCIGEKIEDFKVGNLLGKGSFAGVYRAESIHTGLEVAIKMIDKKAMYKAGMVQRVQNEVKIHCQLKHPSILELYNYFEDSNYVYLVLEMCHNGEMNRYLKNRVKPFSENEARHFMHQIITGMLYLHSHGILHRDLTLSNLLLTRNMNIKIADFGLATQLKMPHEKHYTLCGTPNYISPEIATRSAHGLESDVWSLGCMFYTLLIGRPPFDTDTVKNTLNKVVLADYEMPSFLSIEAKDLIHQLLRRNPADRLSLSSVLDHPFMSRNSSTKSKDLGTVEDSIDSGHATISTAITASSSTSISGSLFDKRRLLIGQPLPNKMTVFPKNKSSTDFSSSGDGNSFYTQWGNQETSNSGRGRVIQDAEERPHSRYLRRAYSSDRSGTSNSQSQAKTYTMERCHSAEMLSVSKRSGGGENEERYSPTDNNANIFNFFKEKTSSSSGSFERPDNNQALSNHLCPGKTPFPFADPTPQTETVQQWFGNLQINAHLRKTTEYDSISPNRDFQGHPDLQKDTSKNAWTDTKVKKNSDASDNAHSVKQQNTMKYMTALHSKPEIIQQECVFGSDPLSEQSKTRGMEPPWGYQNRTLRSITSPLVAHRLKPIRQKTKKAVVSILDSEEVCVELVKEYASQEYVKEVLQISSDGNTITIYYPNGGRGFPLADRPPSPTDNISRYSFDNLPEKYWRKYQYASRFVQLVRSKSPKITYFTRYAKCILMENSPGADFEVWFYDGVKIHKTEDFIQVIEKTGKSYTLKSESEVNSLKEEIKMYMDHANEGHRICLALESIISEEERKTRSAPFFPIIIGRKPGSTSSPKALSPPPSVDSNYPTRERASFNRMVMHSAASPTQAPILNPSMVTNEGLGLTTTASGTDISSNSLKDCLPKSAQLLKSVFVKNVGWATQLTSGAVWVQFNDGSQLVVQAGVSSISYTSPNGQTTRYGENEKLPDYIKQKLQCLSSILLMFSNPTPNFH

Active and inactive are the calls of the source.
Further: in the data inactive means no Kd found up to 30 µM.

On to `C=CCn1c(=O)c2cnc(Nc3ccc(N4CCN(C)CC4)cc3)nc2n1-c1cccc(C(C)(C)O)n1` [ADAVOSERTIB], for which the Kd (in experiment [1]; in experiment [2]; in experiment [3]; on Scaffold protein ILK; on Midasin; in experiment [4]) was > 30 µM (inactive) each time.
Consider `COc1cc2ncnc(Nc3ccc(F)c(Cl)c3)c2cc1NC(=O)/C=C/CN1CCCCC1` [DACOMITINIB ANHYDROUS], for which the Kd (in experiment [1]; in experiment [2]; in experiment [3]; on Scaffold protein ILK; at Midasin; in experiment [4]) was > 30 µM (inactive) in each case.
Take `COCCN1CCN(Cc2ccc(-c3n[nH]c4c3C(=O)c3c(NC(=O)NN5CCOCC5)cccc3-4)cc2)CC1` [RGB-286638]: the Kd (in experiment [1]; in experiment [2]; in experiment [3]; at Scaffold protein ILK; on Midasin; in experiment [4]) was > 30 µM (inactive) each time.
Turning to `O=C(NOC[C@H](O)CO)c1ccc(F)c(F)c1Nc1ccc(I)cc1F` [MIRDAMETINIB], the Kd (in experiment [1]; in experiment [2]; in experiment [3]; on Scaffold protein ILK; in experiment [4]) was > 30 µM (inactive) each time.
With `CNC(=O)c1cccc(-c2ccc3c(N4CCOC[C@@H]4C)nc(N4CCOC[C@@H]4C)nc3n2)c1` [VISTUSERTIB], the Kd (in experiment [1]; in experiment [2]; in experiment [3]; on Scaffold protein ILK; at Midasin; in experiment [4]) was > 30 µM (inactive) each time.
Turning to `COc1cc2nccc(Oc3ccc(NC(=O)C4(C(=O)Nc5ccc(F)cc5)CC4)cc3)c2cc1OC` [CABOZANTINIB], the Kd (in experiment [1]; in experiment [2]; in experiment [3]; on Scaffold protein ILK; on Midasin; in experiment [4]) was > 30 µM (inactive) in each case.
Consider `Cc1cc(Nc2nc(N[C@@H](C)c3ncc(F)cn3)ncc2Cl)n[nH]1` [AZD-1480], for which the Kd in experiment [1] is > 30 µM (inactive); in experiment [2], > 30 µM (inactive); in experiment [3], > 30 µM (inactive); at Scaffold protein ILK, > 30 µM (inactive); on Midasin, > 30 µM (inactive); in experiment [4] it was 0.308 µM (active).
Regarding `O=C(Nc1ccc(OC(F)(F)F)cc1)c1sccc1NCc1ccnc2ccccc12` [OSI-930], the Kd (in experiment [1]; in experiment [2]; in experiment [3]; on Scaffold protein ILK; on Midasin; in experiment [4]) was > 30 µM (inactive) each time.
For the compound `C=CCN(/C=C1/C(=O)O[C@H](COC)[C@@]2(C)C1=C(O)C(=O)C1=C2[C@H](OC(C)=O)C[C@]2(C)C(=O)CC[C@@H]12)CC=C` [SONOLISIB], the Kd (in experiment [1]; in experiment [3]; on Scaffold protein ILK; on Midasin; in experiment [4]) was > 30 µM (inactive) each time.
`COc1cccc2cc(-c3nc([C@H]4CC[C@H](C(=O)O)CC4)n4ncnc(N)c34)[nH]c12` [OSI-027]: the Kd (in experiment [1]; in experiment [2]; in experiment [3]; on Scaffold protein ILK; at Midasin; in experiment [4]) was > 30 µM (inactive) throughout.
Turning to `O=c1[nH]c([C@@H]2CCCN2)nc2c1oc1ccc(Cl)cc12`, the Kd (in experiment [1]; in experiment [2]; in experiment [3]; at Scaffold protein ILK; at Midasin; in experiment [4]) was > 30 µM (inactive) throughout.
For `COc1ccc(-c2ccc3ncc4c(c3c2)n(-c2ccc(N3CCNCC3)c(C(F)(F)F)c2)c(=O)n4C)cn1` [BGT-226 FREE BASE], the Kd (in experiment [1]; in experiment [2]; in experiment [3]; on Scaffold protein ILK; on Midasin; in experiment [4]) was > 30 µM (inactive) throughout.
Consider `COc1cc2ncnc3c2cc1OCCCCCN(C)Cc1ccc(Br)cc1N3` [JNJ-26483327], for which the Kd (in experiment [1]; in experiment [2]; at Scaffold protein ILK; on Midasin; in experiment [4]) was > 30 µM (inactive) each time.
On to `CNC(=O)c1cc(COc2nnc(Nc3ccc(Cl)cc3)c3ccoc23)ccn1` [TELATINIB], for which the Kd in experiment [1] was > 30 µM (inactive); in experiment [2], > 30 µM (inactive); in experiment [3] it was > 30 µM (inactive); on Scaffold protein ILK, 0.032 µM; in experiment [4] it was > 30 µM (inactive).
Take `C=CC(=O)Nc1cccc(Nc2nc(Nc3ccc(N4CCN(C(C)=O)CC4)cc3OC)ncc2C(F)(F)F)c1` [ROCILETINIB]: the Kd (in experiment [1]; in experiment [2]; in experiment [3]; on Midasin; in experiment [4]) was > 30 µM (inactive) throughout.
Take `O[C@H]1CC[C@H](Nc2ncc3nc(Nc4c(F)cc(F)cc4F)n([C@H]4CCOC4)c3n2)CC1` [TANZISERTIB]: the Kd (in experiment [1]; in experiment [2]; in experiment [3]; on Midasin; in experiment [4]) was > 30 µM (inactive) in each case.

These data come from ChEMBL document CHEMBL3991601, “The target landscape of clinical kinase drugs” (Science, 2017).
